Consider 4 molecules from patent publication US20080188490A1, “Acetylene Derivatives” (priority 2005, published 2008).

In data set [1] the test system is stress-induced hyperthermia. The experiment in a line: stress-induced hyperthermia in mice. In kind it is in vivo. As to conditions: control hyperthermia 0.98±0.08° C. The procedure: A. Lecci et al., Psychopharmacol. 101, 255-261]. At doses of about 0.1 to about 30 mg/kg p.o., selected agents of the invention reverse the stress-induced hyperthermia.
With (±)-(1R,3R)-3-(4-Chloro-phenylamino)-1-(3-chloro-phenylethynyl)-cyclohexanol, a stress-induced hyperthermia of 0.98±0.08° C. was reduced to 0.66±0.06° C. at 1 mg/kg p.o., to […] at 3 mg/kg p.o.; to 0.58±0.06° C. at 10 mg/kg p.o. and to 0.33±0.04° C. at 30 mg/kg p.o. (p<0.05; p<0.0011; p<0.01; p<0.001 respectively).

In the next data set the target is T1, hmGluR5 (Homo sapiens, UniProt P41594).
T1 construct: expressed in transfected cells
T1 sequence (P41594 21-1180 isoform P41594-2 limits assumed): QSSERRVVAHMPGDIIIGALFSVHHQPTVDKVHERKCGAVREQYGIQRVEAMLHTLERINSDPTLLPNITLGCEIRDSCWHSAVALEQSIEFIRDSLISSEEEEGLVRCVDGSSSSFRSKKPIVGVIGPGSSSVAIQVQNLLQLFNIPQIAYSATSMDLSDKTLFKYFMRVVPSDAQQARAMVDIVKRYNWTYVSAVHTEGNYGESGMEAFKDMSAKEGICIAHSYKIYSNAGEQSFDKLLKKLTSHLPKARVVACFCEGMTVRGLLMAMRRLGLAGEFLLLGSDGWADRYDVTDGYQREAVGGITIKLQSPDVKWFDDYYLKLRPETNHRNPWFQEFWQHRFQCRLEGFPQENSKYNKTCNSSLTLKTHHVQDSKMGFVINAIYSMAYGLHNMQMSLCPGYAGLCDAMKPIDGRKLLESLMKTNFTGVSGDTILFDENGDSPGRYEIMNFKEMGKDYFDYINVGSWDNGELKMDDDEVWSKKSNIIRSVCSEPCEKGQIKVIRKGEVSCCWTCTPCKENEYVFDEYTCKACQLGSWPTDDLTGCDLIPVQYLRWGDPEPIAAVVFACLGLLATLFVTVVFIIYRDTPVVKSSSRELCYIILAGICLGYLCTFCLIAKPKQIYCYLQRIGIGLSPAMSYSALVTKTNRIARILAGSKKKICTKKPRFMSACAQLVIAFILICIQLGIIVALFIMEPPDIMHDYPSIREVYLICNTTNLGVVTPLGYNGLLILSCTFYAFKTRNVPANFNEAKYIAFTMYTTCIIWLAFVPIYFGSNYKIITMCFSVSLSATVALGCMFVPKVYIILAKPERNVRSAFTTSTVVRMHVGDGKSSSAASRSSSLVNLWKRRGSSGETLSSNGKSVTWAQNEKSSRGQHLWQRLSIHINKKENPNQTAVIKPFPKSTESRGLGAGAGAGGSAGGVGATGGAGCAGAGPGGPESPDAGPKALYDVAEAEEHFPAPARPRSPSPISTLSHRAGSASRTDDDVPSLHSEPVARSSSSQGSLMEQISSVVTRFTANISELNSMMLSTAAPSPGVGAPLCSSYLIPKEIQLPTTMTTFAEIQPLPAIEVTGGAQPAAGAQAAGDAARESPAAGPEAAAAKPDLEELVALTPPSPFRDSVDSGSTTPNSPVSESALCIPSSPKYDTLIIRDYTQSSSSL
The experiment in a line: inhibition of quisqualate-induced inositol phosphate turnover in hmGluR5 expressing cells. In kind it is cell-based. As to conditions: agonist quisqualate, read-out: IC50 concentration, inhibition of quisqualate-induced inositol phosphate turnover. The text has this: This can be determined in vitro for example at recombinant human metabotropic glutamate receptors, especially PLC-coupled subtypes thereof such as mGluR5, using different procedures like, for example, measurement of the inhibition of the agonist induced elevation of intracellular Ca^2+ concentration in accordance with L. P. Daggett et al., Neuropharm. Vol. 34, pages 871-886 (1995), P. J. Flor et al., J. Neurochem. Vol. 67, pages 58-63 (1996) or by determination to what extent the agonist induced elevation of the inositol phosphate turnover is inhibited as described by T. Knoepfel et al., Eur. J. Pharmacol. Vol. 288, pages 389-392 (1994), L. P. Daggett et al., Neuropharm. Vol. 67, pages 58-63 (1996) and references cited therein. Isolation and expression of human mGluR subtypes are described in U.S. Pat. No. 5,521,297. Selected agents of the invention show IC50 values for the inhibition of the agonist (e.g. glutamate or quisqualate) induced elevation of intracellular Ca2+ concentration or the agonist (e.g. glutamate or quisqualate) induced inositol phosphate turnover, measured in recombinant cells expressing hmGluR5a of about 1nM to about 50 μM.

Structures can show the parent of a compound that is named as a salt.

Consider `O[C@]1(C#Cc2cccc(Cl)c2)CCC[C@@H](Nc2ccc(Cl)cc2)C1` (racemic) (as salt: hydrochloride) [Example 1, (±)-(1R,3R)-3-(4-Chloro-phenylamino)-1-(3-chloro-phenylethynyl)-cyclohexanol], for which the melting point (commonly the temperature of the solid-liquid transition) is 153 to 163 °C.
As for `O[C@]1(C#Cc2cccc(Cl)c2)CCC[C@@H](Nc2ccc(Cl)cc2)C1` (racemic) [Example 1, (±)-(1R,3R)-3-(4-Chloro-phenylamino)-1-(3-chloro-phenylethynyl)-cyclohexanol], the “stress-induced hyperthermia after treatment” value in data set [1] (1 mg/kg p.o., p<0.05) worked out at 0.66±0.06 °C; in data set [1] (3 mg/kg p.o., p<0.0011), 0.43±10 °C; in data set [1] (10 mg/kg p.o., p<0.01), 0.58±0.06 °C; in data set [1] (30 mg/kg p.o., p<0.001) it was 0.33±0.04 °C. Besides, the IC50 on hmGluR5 was determined as 1600 nM.
For `O[C@@]1(C#Cc2cccc(Cl)c2)CCC[C@H](Nc2cc(-c3ccco3)[nH]n2)C1` [Example 1.26, (1S,3S)-1-(3-Chloro-phenylethynyl)-3-(5-furan-2-yl-1H-pyrazol-3-ylamino)-cyclohexanol], the melting point lay in the range of 83 to 88 °C.
On the same count and under the same terms, under `O[C@]1(C#Cc2cccc(Cl)c2)CCC[C@@H](Nc2cc(-c3ccco3)[nH]n2)C1` [Example 1.27, (1R,3R)-1-(3-Chloro-phenylethynyl)-3-(5-furan-2-yl-1H-pyrazol-3-ylamino)-cyclohexanol] stands 78 to 85 °C.
